In patent US20200369626A1 (Washington University, priority 2019, published 2020):
Values joined by “and” are separate entries in the source; they are usually repeats but may differ in a detail not shown here. Identical values can stand only once.

Legend:
S1PR2 = molecular target: T1, S1PR2 (Homo sapiens, UniProt O95136); test: competitive [^32P]S1P binding assay on cell membranes, S1PR2; conditions: read-out: [^32P]S1P competition assay IC50; S1PR2, radioligand [^32P]S1P
T1 construct: purchased

[1] = molecular target: T2, Human recombinant sphingosine-1-phosphate receptor 2 (Homo sapiens, UniProt O95136); test: competitive binding assay using [^125I]34 as radioligand; conditions: S1PR2, radioligand [^125I]34; read-out: [^125I]34 competition assay IC50
Experimental: Then, 50 μL of different concentrations (0.01, 0.05, 0.1, 0.5, 1.0, 5.0, 10.0, 50.0, 100, 500, 1000 nM) of each ligand and 50 μL of [^125]34 (6.0 nM) was added to each well. The mixture was incubated for 1 h on a shaker at room temperature and then transferred onto a 96-well glass fiber filtration plates. The unbound activity was filtered and rapidly washed using ice-cold assay buffer (5×200 μL/well). After drying under reduced pressure, the filter bound radionuclide was measured by a Beckman 8000 automated gamma counter. The binding potency (IC50) was calculated using GraphPad Prism.

[2] = ex vivo biodistribution study of [^125I]34 in Wistar rats
Experimental: A pilot biodistribution study was carried out in a small number of rats at early time points post-injection in order to minimize the amount of mixed (radioactive and biological) waste generated by in vivo work. […] Control and streptozotocin-treated Wistar rats were used 10 days after treatment for the preliminary pilot acute ex vivo biodistribution study described below.
As described above, adult male Wistar rats from Charles River were used for a pilot study to evaluate the distribution of [^125I]34 in normal rats at 5 and 30 min post injection and in acute streptozotocin-induced diabetic rats 30 min post-injection (n=4 for each group). The acute streptozotocin-induced diabetic rats were treated 10 days before the study as described above. […] The concentrated solution of [^125I]34 was diluted to ˜0.037 MBq/100 μL which was formulated for injection in 10% ethanol in 5% polyoxyethylated 12-hydroxystearic acid (Kolliphor® HS 15, Millipore Sigma, Billerica, Mass.) and normal saline solution, in order to ensure that the radioactivity was solubilized. Rats were injected via the lateral tail vein under 2-3% isoflurane/oxygen anesthesia, then allowed to recover until euthanized under isoflurane/oxygen anesthesia at the appropriate time point post-injection. Tissues including blood, heart, lung, liver, kidney, muscle, fat, pancreas, spleen, kidney, liver, thyroid, thymus, brain, and small intestines were collected, weighed, and counted in a Beckman Gamma 8000 counter, and counts were corrected for background and decay corrected. Tracer uptake in tissues and organs was calculated as percent injected dose per gram of tissue (% ID/g).

[3] = molecular target: T3, sphingosine-1-phosphate receptor 2 in kidney sections (Rattus norvegicus, UniProt P47752); test: in vitro autoradiography of [^125I]34 on rat kidney sections; type: binding, Sprague Dawley rats
T3 construct: from tissue; host or cells: kidney of male Sprague Dawley rats (control and STZ-induced diabetic)
Experimental: To check that changes of S1PR2 expression can be detected using [^125I]34 in the STZ induced diabetes rats, in vitro autoradiography studies of [^125]34 were performed.
Male Sprague Dawley (SD) rats (8 weeks old,) received streptozotocin (STZ) via tail vein injections at a dose of 55 mg/kg in 50 mM sodium citrate buffer 12 weeks prior to euthanasia and tissue harvesting. Body weight and blood glucose levels were measured weekly in control and treated animals, where elevated blood glucose was indicative of chronic diabetes (see FIG. 5a). After 12 weeks, the rats were euthanized and one kidney was removed, snap-frozen, and sectioned (14 microns) with a Leica cryostat.
The autoradiography experiment was performed by incubating frozen cross sections of rat kidney tissue and 1.85 KBq/slide of [^125I]34 in 500 μL of binding buffer (50 mM HEPES-Na pH 7.5, 5 mM MgCl2, and 1 mM CaCl2, 0.5% fatty acid-free bovine serum albumin) to check the uptake of the radioactivity. Blocking studies of radiotracer were performed by incubating the above solution with 10 μM of JTE-013, a S1PR2 specific inhibitor. After incubation for 60 minutes at room temperature, the kidney sections were washed 2 minutes each using the following buffers sequentially: 1×TBST, 15% ethanol in 1×TBST, 30% ethanol in 1×TBST, 1×TBST (1×TBST buffer: 20 mM of Tris, 150 mM of NaCl, 0.1% of Tween 20). Then, the section slides were placed into a cassette and exposed to a phosphor sensor sheet for 24 hours. Autoradiography signal was visualized by phosphor-imaging of FLA7000. Autoradiography signal on the renal tissues (cortex and medulla, not including the renal papilla) was measured and quantified with Multi Gouge program. The data was background-corrected and expressed as photo-stimulated luminescence signals per square millimeter (PSL/mm^2) as shown in FIG. 5B. For statistical comparison, the student t-test (unpaired) was applied using MS Excel and p<0.05 was considered statistically significant (see FIG. 5C.)

[4] = molecular target: T2, Human recombinant sphingosine-1-phosphate receptor 2; test: biochemical; type: binding
Experimental: Then, a 50 μL aliquot of increasing concentrations of [^125I]34 (0.2, 0.5, 1.0, 2.0, 4.0, 6.0, 8.0, 10.0, 16.0, and 20.0 nM) was added to each well; each concentration of [^125I]34 was calculated from the radioactivity and specific activity. […] The mixture was incubated at room temperature for 1 h on a shaker and then transferred onto 96-well glass fiber filtration plates. The unbound activity was filtered and rapidly washed away using 200 μL/well of ice-cold assay buffer for 5 times. After drying under the vacuum, the filter bound radionuclide was measured by a Beckman 8000 automated gamma counter. Data analysis was accomplished using GraphPad Prism (GraphPadSoftware, Inc., San Diego, Calif.). The specific binding was calculated by subtracting the non-specific binding from the total binding. The binding assay data were curve-fit to a one-site binding equation to generate the dissociation constant (Kd) of the [^125I]34.

T3 sequence (P47752 whole entry): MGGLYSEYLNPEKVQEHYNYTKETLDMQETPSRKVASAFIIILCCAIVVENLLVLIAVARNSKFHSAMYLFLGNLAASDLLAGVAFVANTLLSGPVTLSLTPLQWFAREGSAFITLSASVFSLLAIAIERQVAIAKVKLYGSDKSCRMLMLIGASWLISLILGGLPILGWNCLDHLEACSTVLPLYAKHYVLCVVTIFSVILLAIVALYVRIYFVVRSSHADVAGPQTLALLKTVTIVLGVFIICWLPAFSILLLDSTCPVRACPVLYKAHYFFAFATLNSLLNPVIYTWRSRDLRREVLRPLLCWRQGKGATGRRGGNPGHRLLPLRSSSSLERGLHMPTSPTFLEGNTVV
T2 sequence (O95136 whole entry): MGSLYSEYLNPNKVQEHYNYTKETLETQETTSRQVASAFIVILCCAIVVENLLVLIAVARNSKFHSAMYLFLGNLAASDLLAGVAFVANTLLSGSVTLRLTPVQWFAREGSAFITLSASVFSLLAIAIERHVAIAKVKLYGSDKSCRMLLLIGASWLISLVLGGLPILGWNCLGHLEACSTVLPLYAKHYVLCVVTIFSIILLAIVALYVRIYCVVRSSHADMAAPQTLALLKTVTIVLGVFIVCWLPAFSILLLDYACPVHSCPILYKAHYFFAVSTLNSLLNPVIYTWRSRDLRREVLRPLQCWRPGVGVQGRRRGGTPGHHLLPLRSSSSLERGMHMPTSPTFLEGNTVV
T1 sequence (O95136 whole entry): as above

COc1ccc(NC(=O)Cn2c(=O)c3ccccc3n(CC(=O)Nc3cc(I)c(OC)cc3OC)c2=O)cc1 [Compound 34, N-(5-iodo-2,4-dimethoxyphenyl)-2-(3-(2-((4-methoxyphenyl)amino)-2-oxoethyl)-2,4-dioxo-3,4-dihydroquinazolin-1(2H)-yl)acetamide]
IC50 (S1PR2): 2.8 nM
IC50 [1]: 4.4 ± 0.2 nM

COc1ccc(NC(=O)Cn2c(=O)c3ccccc3n(CC(=O)Nc3cc([125I])c(OC)cc3OC)c2=O)cc1 [[^125I]34]
Uptake Blood ([2]; 5 min control): 0.19 % ID/g and 0.19 ± 0.05 % ID/g
Uptake Blood ([2]; 30 min acute diabetic): 0.08 ± 0.05 % ID/g
Uptake Blood ([2]; 30 min control): 0.08 ± 0.02 % ID/g
Uptake Brain ([2]; 5 min control): 0.01 % ID/g and 0.01 ± 0.00 % ID/g
Uptake Brain ([2]; 30 min acute diabetic): 0.01 ± 0.00 % ID/g
Uptake Brain ([2]; 30 min control): 0.01 ± 0.00 % ID/g
Uptake Fat ([2]; 5 min control): 0.07 ± 0.02 % ID/g
Uptake Fat ([2]; 30 min acute diabetic): 0.11 ± 0.04 % ID/g
Uptake Fat ([2]; 30 min control): 0.09 ± 0.01 % ID/g
Uptake Heart ([2]; 5 min control): 0.39 % ID/g and 0.39 ± .08 % ID/g
Uptake Heart ([2]; 30 min acute diabetic): 0.12 ± 0.06 % ID/g
Uptake Heart ([2]; 30 min control): 0.14 ± 0.02 % ID/g
Uptake Kidney ([2]; 5 min control): 0.58 % ID/g and 0.58 ± 0.02 % ID/g
Uptake Kidney ([2]; 30 min acute diabetic): 0.15 ± 0.06 % ID/g
Uptake Kidney ([2]; 30 min control): 0.15 ± 0.02 % ID/g
Uptake Liver ([2]; 5 min control): 2.20 % ID/g and 2.20 ± 0.32 % ID/g
Uptake Liver ([2]; 30 min acute diabetic): 0.36 ± 0.14 % ID/g
Uptake Liver ([2]; 30 min control): 0.36 ± 0.07 % ID/g
Uptake Lung ([2]; 5 min control): 0.64 % ID/g and 0.64 ± 0.01 % ID/g
Uptake Lung ([2]; 30 min acute diabetic): 0.20 ± 0.09 % ID/g
Uptake Lung ([2]; 30 min control): 0.22 ± 0.04 % ID/g
Uptake Muscle ([2]; 5 min control): 0.12 ± 0.01 % ID/g
Uptake Muscle ([2]; 30 min acute diabetic): 0.06 ± 0.02 % ID/g
Uptake Muscle ([2]; 30 min control): 0.08 ± 0.01 % ID/g
Uptake Pancreas ([2]; 5 min control): 0.40 ± 0.04 % ID/g
Uptake Pancreas ([2]; 30 min acute diabetic): 0.12 ± 0.04 % ID/g
Uptake Pancreas ([2]; 30 min control): 0.14 ± 0.01 % ID/g
Uptake Small intestines ([2]; 5 min control): 1.09 ± 0.23 % ID/g
Uptake Small intestines ([2]; 30 min acute diabetic): 2.59 ± 0.58 % ID/g
Uptake Small intestines ([2]; 30 min control): 5.32 ± 0.27 % ID/g
Uptake Spleen ([2]; 5 min control): 0.29 ± 0.06 % ID/g
Uptake Spleen ([2]; 30 min acute diabetic): 0.05 ± 0.02 % ID/g
Uptake Spleen ([2]; 30 min control): 0.06 ± 0.01 % ID/g
Uptake Thymus ([2]; 5 min control): 0.10 ± 0.01 % ID/g
Uptake Thymus ([2]; 30 min acute diabetic): 0.08 ± 0.03 % ID/g
Uptake Thymus ([2]; 30 min control): 0.10 ± 0.02 % ID/g
Uptake Thyroid ([2]; 5 min control): 0.32 ± 0.11 % ID/g
Uptake Thyroid ([2]; 30 min acute diabetic): 0.25 ± 0.06 % ID/g
Uptake Thyroid ([2]; 30 min control): 0.53 ± 0.09 % ID/g
in vivo metabolic stability ([2]; inferred from low activity in the thyroid): metabolically stable
crossing of the blood brain barrier ([2]; inferred from very low brain uptake in rats): does not cross the blood brain barrier
blocking of binding to kidney tissue ([3]; 10 μM of JTE-013, both groups): could be blocked
kidney radioactivity (autoradiography signal) ([3]; chronic diabetic (STZ) rats, n=5): 103.5 PSL/mm^2
increase of binding to kidney of diabetic rats compared to control rats ([3]; chronic diabetic vs control): 44%
kidney radioactivity (autoradiography signal) ([3]; control rats, n=4): 72.0 PSL/mm^2
Kd [4]: 4.31 ± 0.39 nM
